According to PubChem BioAssay (NCI):
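GI50 marks 50% less growth. TGI: concentration producing complete growth inhibition.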

Key:
Experiment in all cases: DTP human tumour cell line panel, 384-well format
NCI-H322M lung = system: NCI-H322M lung
PC-3 prostate = system: PC-3 prostate
SF-268 CNS = system: SF-268 CNS
HL-60(TB) leukemia = system: HL-60(TB) leukemia
KM12 colon = system: KM12 colon
UO-31 renal = system: UO-31 renal
SF-295 CNS = system: SF-295 CNS
M14 melanoma = system: M14 melanoma
UACC-62 melanoma = system: UACC-62 melanoma
786-0 renal = system: 786-0 renal
RXF 393 renal = system: RXF 393 renal
LOX IMVI melanoma = system: LOX IMVI melanoma
RPMI-8226 leukemia = system: RPMI-8226 leukemia
MCF7 breast = system: MCF7 breast
ACHN renal = system: ACHN renal
SK-MEL-5 melanoma = system: SK-MEL-5 melanoma
T-47D breast = system: T-47D breast
COLO 205 colon = system: COLO 205 colon
HS 578T breast = system: HS 578T breast
NCI-H226 lung = system: NCI-H226 lung
EKVX NSCLC = system: EKVX NSCLC
SW-620 colon = system: SW-620 colon
IGROV1 ovarian = system: IGROV1 ovarian
CAKI-1 renal = system: CAKI-1 renal
CCRF-CEM leukemia = system: CCRF-CEM leukemia
SN12C renal = system: SN12C renal
HCT-15 colon = system: HCT-15 colon
HOP-62 NSCLC = system: HOP-62 NSCLC
NCI-H23 lung = system: NCI-H23 lung
A498 renal = system: A498 renal
MDA-MB-435 melanoma = system: MDA-MB-435 melanoma
TK-10 renal = system: TK-10 renal
MOLT-4 leukemia = system: MOLT-4 leukemia
OVCAR-3 ovarian = system: OVCAR-3 ovarian
OVCAR-4 ovarian = system: OVCAR-4 ovarian
A549 NSCLC = system: A549 NSCLC
SNB-19 CNS = system: SNB-19 CNS
SNB-75 CNS = system: SNB-75 CNS
HCC-2998 colon = system: HCC-2998 colon
DU-145 prostate = system: DU-145 prostate
OVCAR-8 ovarian = system: OVCAR-8 ovarian
SK-MEL-28 melanoma = system: SK-MEL-28 melanoma
SR leukemia = system: SR leukemia
HOP-92 NSCLC = system: HOP-92 NSCLC
MALME-3M melanoma = system: MALME-3M melanoma
NCI/ADR-RES ovarian = system: NCI/ADR-RES ovarian
MDA-MB-231 breast = system: MDA-MB-231 breast
BT-549 breast = system: BT-549 breast
UACC-257 melanoma = system: UACC-257 melanoma
NCI-H522 lung = system: NCI-H522 lung
SF-539 CNS = system: SF-539 CNS
OVCAR-5 ovarian = system: OVCAR-5 ovarian
SK-OV-3 ovarian = system: SK-OV-3 ovarian
NCI-H460 NSCLC = system: NCI-H460 NSCLC
MDA-MB-468 breast = system: MDA-MB-468 breast
HT29 colon = system: HT29 colon
K-562 leukemia = system: K-562 leukemia

Structure (SMILES): C=CC(=O)N1CCN(c2ncnc3c(F)c(-c4c(O)cccc4F)c(Cl)cc23)CC1
- GI50 (NCI-H322M lung): 3.22 µM
- TGI (NCI-H322M lung): 10.3 µM
- GI50 (PC-3 prostate): 2.64 µM
- TGI (PC-3 prostate): 8.13 µM
- GI50 (SF-268 CNS): 2.09 µM
- TGI (SF-268 CNS): 5.38 µM
- GI50 (HL-60(TB) leukemia): 1.68 µM
- TGI (HL-60(TB) leukemia): 3.08 µM
- GI50 (KM12 colon): 2.92 µM
- TGI (KM12 colon): 9.85 µM
- GI50 (UO-31 renal): 3.58 µM
- TGI (UO-31 renal): 12.5 µM
- GI50 (SF-295 CNS): 2.97 µM
- TGI (SF-295 CNS): 8.83 µM
- GI50 (M14 melanoma): 1.98 µM
- TGI (M14 melanoma): 4.68 µM
- GI50 (UACC-62 melanoma): 1.59 µM
- TGI (UACC-62 melanoma): 4.76 µM
- GI50 ([…]-0 renal): 3.34 µM
- TGI (786-0 renal): 12.4 µM
- GI50 (RXF 393 renal): 1.91 µM
- TGI (RXF 393 renal): 4.03 µM
- GI50 (LOX IMVI melanoma): 2.08 µM
- TGI (LOX IMVI melanoma): 5.21 µM
- GI50 (RPMI-8226 leukemia): 1.6 µM
- TGI (RPMI-8226 leukemia): 3 µM
- GI50 (MCF7 breast): 2.95 µM
- TGI (MCF7 breast): 9.01 µM
- GI50 (ACHN renal): 2.27 µM
- TGI (ACHN renal): 5.89 µM
- GI50 (SK-MEL-5 melanoma): 2.39 µM
- TGI (SK-MEL-5 melanoma): 5.66 µM
- GI50 (T-47D breast): 6.31 µM
- TGI (T-47D breast): 18.4 µM
- GI50 (COLO 205 colon): 2.33 µM
- TGI (COLO 205 colon): 5.19 µM
- GI50 (HS 578T breast): 1.71 µM
- TGI (HS 578T breast): 3.87 µM
- GI50 (NCI-H226 lung): 2.39 µM
- TGI (NCI-H226 lung): 7.65 µM
- GI50 (EKVX NSCLC): 5.74 µM
- TGI (EKVX NSCLC): 18 µM
- GI50 (SW-620 colon): 3.78 µM
- TGI (SW-620 colon): 11.3 µM
- GI50 (IGROV1 ovarian): 3.5 µM
- TGI (IGROV1 ovarian): 11.8 µM
- GI50 (CAKI-1 renal): 3.07 µM
- TGI (CAKI-1 renal): 12.9 µM
- GI50 (CCRF-CEM leukemia): 1.83 µM
- TGI (CCRF-CEM leukemia): 3.34 µM
- GI50 (SN12C renal): 4.48 µM
- TGI (SN12C renal): 15.4 µM
- GI50 (HCT-15 colon): 2.5 µM
- TGI (HCT-15 colon): 6.08 µM
- GI50 (HOP-62 NSCLC): 1.21 µM
- TGI (HOP-62 NSCLC): 4.8 µM
- GI50 (NCI-H23 lung): 0.0694 µM
- TGI (NCI-H23 lung): 0.94 µM
- GI50 (A498 renal): 2.05 µM
- TGI (A498 renal): 6.37 µM
- GI50 (MDA-MB-435 melanoma): 3.91 µM
- TGI (MDA-MB-435 melanoma): 13.9 µM
- GI50 (TK-10 renal): 8.84 µM
- TGI (TK-10 renal): 30.7 µM
- GI50 (MOLT-4 leukemia): 2.08 µM
- TGI (MOLT-4 leukemia): 3.62 µM
- GI50 (OVCAR-3 ovarian): 1.83 µM
- TGI (OVCAR-3 ovarian): 3.9 µM
- GI50 (OVCAR-4 ovarian): 5.97 µM
- TGI (OVCAR-4 ovarian): 18.2 µM
- GI50 (A549 NSCLC): 2.36 µM
- TGI (A549 NSCLC): 5.74 µM
- GI50 (SNB-19 CNS): 4.08 µM
- TGI (SNB-19 CNS): 14.9 µM
- GI50 (SNB-75 CNS): 3.41 µM
- TGI (SNB-75 CNS): 16.7 µM
- GI50 (HCC-2998 colon): 2.27 µM
- TGI (HCC-2998 colon): 4.32 µM
- GI50 (DU-145 prostate): 3.5 µM
- TGI (DU-145 prostate): 12.5 µM
- GI50 (OVCAR-8 ovarian): 2.46 µM
- TGI (OVCAR-8 ovarian): 6.4 µM
- GI50 (SK-MEL-28 melanoma): 3.17 µM
- TGI (SK-MEL-28 melanoma): 13.7 µM
- GI50 (SR leukemia): 1 µM
- TGI (SR leukemia): 2.18 µM
- GI50 (HOP-92 NSCLC): 4.73 µM
- TGI (HOP-92 NSCLC): 16.8 µM
- GI50 (MALME-3M melanoma): 3.58 µM
- TGI (MALME-3M melanoma): 9.59 µM
- GI50 (NCI/ADR-RES ovarian): 14 µM
- TGI (NCI/ADR-RES ovarian): 28.3 µM
- GI50 (MDA-MB-231 breast): 5.17 µM
- TGI (MDA-MB-231 breast): 18.5 µM
- GI50 (BT-549 breast): 1.73 µM
- TGI (BT-549 breast): 4.14 µM
- GI50 (UACC-257 melanoma): 3.65 µM
- TGI (UACC-257 melanoma): 9.18 µM
- GI50 (NCI-H522 lung): 3.1 µM
- TGI (NCI-H522 lung): 8.43 µM
- GI50 (SF-539 CNS): 2.4 µM
- TGI (SF-539 CNS): 5.02 µM
- GI50 (OVCAR-5 ovarian): 3.66 µM
- TGI (OVCAR-5 ovarian): 11.9 µM
- GI50 (SK-OV-3 ovarian): 4.14 µM
- TGI (SK-OV-3 ovarian): 16.1 µM
- GI50 (NCI-H460 NSCLC): 2.78 µM
- TGI (NCI-H460 NSCLC): 7.79 µM
- GI50 (MDA-MB-468 breast): 2.34 µM
- TGI (MDA-MB-468 breast): 4.63 µM
- GI50 (HT29 colon): 2.97 µM
- TGI (HT29 colon): 8.72 µM
- GI50 (K-562 leukemia): 5.53 µM
- TGI (K-562 leukemia): 18.1 µM
